The text below walks through data of US6486156B1, “Chemical compounds” (Astrazeneca AB, priority 1998, dated 2002).

In the experiment the target is T1, Farnesyl protein transferase (FPT) (Homo sapiens, UniProt P49354+P49356).
T1 construct: partially purified from human placenta by ammonium sulphate fractionation; from tissue; host or cells: human placenta
The experiment can be described thus: In-vitro assay (test (i)): inhibition of farnesylation of Ki-ras with radiolabelled farnesyl pyrophosphate. The note with it: FPT partially purified from human placenta; substrate Kras (CVIM C-terminal sequence). The class given is biochemical. As for the experimental part: The following stock solutions were used and the assays were conducted in 96 well plates: TRIS Buffer (500 mM TRIS, 5 mM MgCl2.6H2O, pH=8.0); Farnesyl pyrophosphate (6.4 mg/ml); Aprotinin (1.9 mg/ml); Ki-ras (0.5 mg/ml, stored at −80° C.); Acid ethanol (850 ml absolute ethanol+150 ml concentrated HCl).
Farnesyl protein transferase (FPT) was partially purified from human placenta by ammonium sulphate fractionation followed by a single Q-Sepharose™ (Pharmacia, Inc) anion exchange chromatography essentially as described by Ray and Lopez-Belmonte (Ray K P and Lopez-Belmonte J (1992) Biochemical Society Transactions 20 494-497). The substrate for FPT was Kras (CVIM C-terminal sequence). The cDNA for oncogenic val 12 variant of human c-Ki-ras-2 4B was obtained from the plasmid pSW11-1 (ATCC). This was then subcloned into the polylinker of a suitable expression vector e.g. pIC147. The Kras was obtained after expression in the E. coli strain, BL21. […]
Assays were performed in 96 well plates as follows: 10 μl of test compound solution was added to each well. […] Precipitated protein was then collected onto glass fibre filter mats (B) using a Tomtec™ cell harvester and tritiated label was measured in a Wallac™ 1204 Betaplate scintillation counter. […]

Usually IC50 stands for the concentration that inhibits the measured activity by half. A low value points to higher potency. The compound `CSCC[C@H](NC(=O)c1ccc(/C=C/Cn2ccnc2)cc1-c1ccc(Cl)cc1Cl)C(=O)O` [Example 29, (2S)-2-{4-[(E)-3-(Imidazol-1-yl)prop-1-en-1-yl]-2-(2,4-dichlorophenyl)benzamido}-4-methylsulfanylbutyric Acid] gave an IC50 of roughly 400 pM.
